One data set concerns blood coagulation. Kind of data set: PT and aPTT vs warfarin (Example 13). The data set is classed as in vivo, BALB/c mice. The settings on record: for PT INR / aPTT INR: PPP two days after final dose. The procedure:
In a control group, BALB/c mice were treated with PBS, administered subcutaneously mice twice a week for 3 weeks.
Two days after the final dose was administered, PPP was collected and PT and aPTT assays were performed.
PT and aPTT values provided in Table 16 are reported as International Normalized Ratio (INR) values. […] This ratio was then raised to the power of the International Sensitivity Index (ISI) of the tissue factor used.

The next data set deals with platelet factor-4 (PF-4). Kind of data set: Thrombus formation by PF-4 real-time PCR, FeCl3 induced venous thrombosis model vs Apixaban (Example 14). The data set is classed as in vivo, BALB/c mice. The settings on record: for PF-4 in vena cava, percentage as compared to PBS controls (thrombus formation): + FeCl3. The procedure: ISIS 404071 and Apixaban were evaluated in the FeCl3 induced VT mouse model. […] Two days after receiving the last dose of ISIS 404071, mice were anesthetized with 150 mg/kg ketamine mixed with 10 mg/kg xylazine administered by intraperitoneal injection. […] Twenty minutes after receiving Apixaban, mice were anesthetized with 150 mg/kg ketamine mixed with 10 mg/kg xylazine administered by intraperitoneal injection. […] Two days after the last dose of PBS, mice in both groups were anesthetized with 150 mg/kg ketamine mixed with 10 mg/kg xylazine administered by intraperitoneal injection. Thrombus formation was induced with FeCl3 in all of the mice except the first control group.
In mice undergoing FeCl3 treatment, thrombus formation was induced by applying a piece of filter paper (2×4 mm) pre-saturated with 10% FeCl3 solution directly on the vena cava. After 3 minutes of exposure, the filter paper was removed. Thirty minutes after the filter paper application, a fixed length of the vein containing the thrombus was dissected out for platelet analysis. Liver was collected for RNA analysis.
Real-time PCR quantification of platelet factor-4 (PF-4) was used to quantify platelets in the vena cava as a measure of thrombus formation. […] Results are presented as a percentage of PF-4 in ISIS 404071 or Apixaban treated mice, as compared to the two PBS-treated control groups.
(In general: In qPCR the cycle at which signal appears reflects the starting amount.)

Data set [1] relates to mesenteric vein thrombosis. The data set can be described thus: Mesenteric vein thrombosis, intravital microscopy (Example 22). The class given is in vivo. Particulars: C57BL/6 mice, 50 mg/kg s.c. twice a week for three weeks. Here is the method:
In a first cohort, ISIS 404071 was administered subcutaneously to C57BL/6 mice twice a week for three weeks at a dose of 50 mg/kg. In a second cohort, a control oligonucleotide, ISIS 405277 ([…]; antisense oligonucleotide for Factor 2), incorporated herein as SEQ ID NO: 12 was administered subcutaneously to C57Bl/6 mice twice a week for three weeks at a dose of 50 mg/kg.
Blood was collected from the retro-orbital venous plexus of naïve C57BL/6 mice by puncture and collected in polypropylene tubes containing 300 μl of heparin (30 U/ml). Platelet rich plasma (PRP) was obtained by centrifugation at 1000 rpm for 5 min. The PRP was transferred to fresh tubes containing 2 μl of Prostaglandin I2 (PGI2) (2 μg/ml) and incubated at 37° C. for 5 min. After centrifugation at 2600 rpm, pellets were resuspended in 1 ml modified Tyrode's-HEPES buffer (137 mM NaCl, 0.3 mM Na2HPO4, 2 mM KCl, 12 mM NaHCO3, 5 mM HEPES, 5 mM glucose, 0.35% BSA, pH 7.2) containing 2 μl of PGI2 and incubated at 37° C. for 5 min. The suspended pellet was centrifuged at 2600 rpm for 5 min. To remove PGI2, the washing step was repeated twice and platelets were fluorescently labeled with calcein AM 2.5 μg/mL (Molecular Probes, Eugene, Oreg.) for 10 min at room temperature.
Fluorescently-labeled platelets were injected intravenously in ISIS 404071 treated and control oligonucleotide treated C57BL/6 mice. […] The exposed mesentery was kept moist throughout the experiment by periodic superfusion with warmed (37° C.) PBS. The mesentery was transluminated with a 12V, 100 W, DC stabilized source. Veins were visualized using a Zeiss (Germany) Axiovert 135 inverted microscope (Objective 32X) connected to an SVHS video recorder (AG-6730; Panasonic, Tokyo, Japan) using a CCD video camera (Hamamatsu Photonic Systems, Hamamatsu City, Japan). Centerline erythrocyte velocity (Vrbc) was measured using an optical Doppler velocimeter (Microcirculation Research Institute, Texas A&M College of Medicine, College Station, Tex.). Venular shear rate (τ) was calculated based on Poiseuille's Law for a newtonian fluid, τ=8(Vmean/Dv), where Dv is the diameter of the venule and Vmean is estimated from the measured Vrbc using the empirical correlation Vmean=Vrbc/1.6.
Mesenteric vein thrombosis was performed two days after the last antisense oligonucleotide injection. Thrombosis was induced by applying Whatman paper soaked in a 10% FeCl3 solution for 5 minutes on the mesenteric vein. The vein was monitored for 40 minutes, or until occlusion. The elapsed time before the first thrombus 30-50 μm in diameter and the elapsed time before blood stopped flowing for 30 seconds were observed.

[2] abbreviates: BALB/c mice, ISIS 404071 1.25-40 mg/kg, warfarin 0.5-5 mg/kg.
The mark [3] stands for this setting: ISIS 404071 1.25 mg/kg subcutaneously twice a week for 3 weeks.
[4] abbreviates: ISIS 404071 5 mg/kg subcutaneously twice a week for 3 weeks.
[5] abbreviates: ISIS 404071 10 mg/kg subcutaneously twice a week for 3 weeks.
Where [6] appears, read: ISIS 404071 20 mg/kg subcutaneously twice a week for 3 weeks.
The mark [7] stands for this setting: ISIS 404071 40 mg/kg subcutaneously twice a week for 3 weeks.

Results on one substance are retold here after patent US20230263822A1, “MODULATION OF FACTOR 11 EXPRESSION” (Ionis Pharmaceuticals, Inc., priority 2008, published 2023).

For the substance “ISIS 404071: antisense oligonucleotide targeted to murine Factor 11 mRNA, TGGTAATCCACTTTCAGAGG, target start site 869 (chemistry not given here)”, the “PT” value in the data set on blood coagulation (setting [2]) was “did not significantly affect PT”. For the same substance, the “aPTT” value in the data set on blood coagulation (setting [2]) is “did prolong aPTT”. In addition, the “PT INR” value with blood coagulation (setting [3]) came to 0.99 INR; with blood coagulation (setting [4]), 1.07 INR; in the data set with blood coagulation (setting [5]) it was 1.08 INR; in the data set with blood coagulation (setting [6]), 1.09 INR; in the data set on blood coagulation (setting [7]), 0.98 INR. The “aPTT INR” value in the data set with blood coagulation (setting [3]) is recorded as 0.98 INR; in the data set on blood coagulation (setting [4]) it was 1.09 INR; in the data set on blood coagulation (setting [5]), 1.29 INR; in the data set with blood coagulation (setting [6]) it was 1.32 INR; in the data set on blood coagulation (setting [7]), 1.64 INR. For the same substance, the “PF-4 in vena cava as measure of thrombus formation” value in the data set with platelet factor-4 (PF-4) (FeCl3 induced VT model, vs PBS control) is recorded as “resulted in reduction of PF-4”. In addition, the “PF-4 in vena cava, percentage as compared to PBS controls (thrombus formation)” value is given as 42% in the data set with platelet factor-4 (PF-4) (setting [3]); 60% in the data set on platelet factor-4 (PF-4) (setting [4]); 28% in the data set on platelet factor-4 (PF-4) (setting [5]); 14% with platelet factor-4 (PF-4) (ISIS 404071 25 mg/kg subcutaneously twice a week for 3 weeks); 4% with platelet factor-4 (PF-4) (ISIS 404071 50 mg/kg subcutaneously twice a week for 3 weeks). Further, the “occlusion of veins within 40 minutes after injury” value in data set [1] is recorded as “did not occlude”. Further, in data set [1] (10% FeCl3 on mesenteric vein), the “time of occlusion (occlusive thrombi)” value amounted to 29.5 min. Also, in data set [1] (10% FeCl3 on mesenteric vein), the “time of thrombus formation (30 μm in diameter)” value amounted to 14.8 ± 1.7 min.
